{
  "source": "patent US4254127A",
  "about": "“1,3-Dihydro-1-[(1-piperidinyl)alkyl]-2H-benzimidazol-2-one derivatives” (Janssen Pharmaceutica, N.V., priority 1980, dated 1981)",
  "key": {"[1]": {"tested_on": "apomorphine-induced emesis", "assay": "apomorphine test in dogs (APO-dog): protection from emesis", "assay_type": "in vivo, beagle dogs", "conditions": "Canis lupus familiaris, sc, apomorphine 0.31 mg/kg s.c. 1 hour after compound, dose protecting 50% from emesis", "text": "2. The apomorphine test in dogs (APO-dog). The method used is described by P. A. J. Janssen and C. J. E. Niemegeers in Arzneim.-Forsch."}, "[2]": {"tested_on": "lesions induced by compound 48/80", "assay": "gastric lesion test: lesions induced by compound 48/80", "assay_type": "in vivo, rats", "conditions": "Rattus norvegicus"}, "[3]": {"tested_on": "tryptamine-induced bilateral tonic seizures", "assay": "combined test in rats: tryptamine (TRY)-induced bilateral tonic seizures", "assay_type": "in vivo, adult male Wistar rats", "conditions": "sc, 1.5 h; s.c.; rat; tryptamine 40 mg/kg i.v. at 90 minutes; dose protecting 50% of animals; read-out: ED0 (TRY)-rat"}, "[4]": {"tested_on": "apomorphine-induced phenomena: agitation and stereotypic chewing", "assay": "combined test in rats: apomorphine (APO)-induced agitation and stereotypic chewing", "assay_type": "in vivo, adult male Wistar rats", "conditions": "sc, 0.5 h; s.c.; rat; apomorphine hydrochloride 1.25 mg/kg i.v. 30 minutes after compound; dose protecting 50% of animals"}, "[5]": {"tested_on": "lesions induced by compound 48/80", "conditions": "rats, known serotonin antagonists; cited from earlier work"}},
  "data": [
    {"smiles": "O=c1[nH]c2ccccc2n1CCCN1CCC(CC(O)c2ccc(F)cc2)CC1", "note": "(stereo not shown)", "values": [
      {"measurement": "ED50", "setting": "[1]", "result": 0.5, "unit": "mg/kg"},
      {"measurement": "ED50", "setting": "[2]", "result": 0.08, "unit": "mg/kg"}
    ]},
    {"smiles": "Cc1ccc2c(c1)[nH]c(=O)n2CCN1CCC(CC(=O)c2ccc(F)cc2)CC1", "note": "[5-CH3, H, H, (CH2)2, CO, 4-FC6 H4, base]", "values": [
      {"measurement": "ED50", "setting": "[3]", "result": 0.63, "unit": "mg/kg"},
      {"measurement": "ED50", "setting": "[1]", "result": 0.08, "unit": "mg/kg"},
      {"measurement": "ED50", "setting": "[2]", "result": 0.63, "unit": "mg/kg"}
    ]},
    {"smiles": "O=C(CC1CCN(CCn2c(=O)[nH]c3cc(Cl)ccc32)CC1)c1ccc(F)cc1", "note": "[5-Cl, H, H, (CH2)2, CO, 4-FC6 H4, base]", "values": [
      {"measurement": "ED50", "setting": "[4]", "result": 2.5, "unit": "mg/kg"},
      {"measurement": "ED50", "setting": "[3]", "result": 5, "unit": "mg/kg"},
      {"measurement": "ED50", "setting": "[1]", "result": 0.12, "unit": "mg/kg"},
      {"measurement": "ED50", "setting": "[2]", "result": 0.63, "unit": "mg/kg"}
    ]},
    {"smiles": "O=C(CC1CCN(CCn2c(=O)[nH]c3cc(F)ccc32)CC1)c1ccc(F)cc1", "note": "[5-F, H, H, (CH2)2, CO, 4-FC6 H4, base]", "values": [
      {"measurement": "ED50", "setting": "[4]", "result": 0.16, "unit": "mg/kg"},
      {"measurement": "ED50", "setting": "[3]", "result": 0.63, "unit": "mg/kg"},
      {"measurement": "ED50", "setting": "[2]", "result": 0.31, "unit": "mg/kg"}
    ]},
    {"smiles": "O=C(CC1CCN(CCn2c(=O)[nH]c3ccc(Cl)cc32)CC1)c1ccc(F)cc1", "note": "[6-Cl, H, H, (CH2)2, CO, 4-FC6 H4, base]", "values": [
      {"measurement": "ED50", "setting": "[4]", "result": 2.5, "unit": "mg/kg"},
      {"measurement": "ED50", "setting": "[3]", "result": 1.25, "unit": "mg/kg"},
      {"measurement": "ED50", "setting": "[1]", "result": 0.5, "unit": "mg/kg"},
      {"measurement": "ED50", "setting": "[2]", "result": 0.63, "unit": "mg/kg"}
    ]},
    {"smiles": "CC(=O)n1c(=O)n(CCN2CCC(CC(=O)c3ccc(F)cc3)CC2)c2ccccc21", "note": "[H, H, CH3 CO, (CH2)2, CO, 4-FC6 H4, base, 1-acetyl-3-[2-[4-[2-(4-fluorophenyl)-2-oxoethyl]-1-piperidinyl]ethyl]-1,3-dihydro-2H-benzimidazol-2-one]", "values": [
      {"measurement": "ED50", "setting": "[4]", "result": 1.25, "unit": "mg/kg"},
      {"measurement": "ED50", "setting": "[3]", "result": 1.25, "unit": "mg/kg"},
      {"measurement": "ED50", "setting": "[1]", "result": 1, "unit": "mg/kg"},
      {"measurement": "ED50", "setting": "[2]", "result": 0.08, "unit": "mg/kg"}
    ]},
    {"smiles": "Cn1c(=O)n(CCN2CCC(CC(=O)c3ccc(F)cc3)CC2)c2ccccc21", "note": "[H, H, CH3, (CH2)2, CO, 4-FC6 H4, base]", "values": [
      {"measurement": "ED50", "setting": "[4]", "result": 0.63, "unit": "mg/kg"},
      {"measurement": "ED50", "setting": "[3]", "result": 0.63, "unit": "mg/kg"},
      {"measurement": "ED50", "setting": "[1]", "result": 0.63, "unit": "mg/kg"},
      {"measurement": "ED50", "setting": "[2]", "result": 0.31, "unit": "mg/kg"}
    ]},
    {"smiles": "Cn1c(=O)n(CCCN2CCC(CC(=O)c3ccc(F)cc3)CC2)c2ccccc21", "note": "[H, H, CH3, (CH2)3, CO, 4-FC6 H4, base]", "values": [
      {"measurement": "ED50", "setting": "[3]", "result": 1.25, "unit": "mg/kg"},
      {"measurement": "ED50", "setting": "[2]", "result": 0.31, "unit": "mg/kg"}
    ]},
    {"smiles": "Cc1ccc(C(=O)CC2CCN(CCn3c(=O)[nH]c4ccccc43)CC2)cc1", "note": "[H, H, H, (CH2)2, CO, 4-CH3C6 H4, base]", "values": [
      {"measurement": "ED50", "setting": "[3]", "result": 2.5, "unit": "mg/kg"},
      {"measurement": "ED50", "setting": "[1]", "result": 0.5, "unit": "mg/kg"},
      {"measurement": "ED50", "setting": "[2]", "result": 0.63, "unit": "mg/kg"}
    ]},
    {"smiles": "O=C(CC1CCN(CCn2c(=O)[nH]c3ccccc32)CC1)c1ccc(Cl)cc1", "note": "[H, H, H, (CH2)2, CO, 4-ClC6 H4, base]", "values": [
      {"measurement": "ED50", "setting": "[4]", "result": 0.63, "unit": "mg/kg"},
      {"measurement": "ED50", "setting": "[3]", "result": 2.5, "unit": "mg/kg"},
      {"measurement": "ED50", "setting": "[1]", "result": 0.5, "unit": "mg/kg"},
      {"measurement": "ED50", "setting": "[2]", "result": 0.16, "unit": "mg/kg"}
    ]},
    {"smiles": "O=C(CC1CCN(CCn2c(=O)[nH]c3ccccc32)CC1)c1ccc(F)cc1", "note": "[H, H, H, (CH2)2, CO, 4-FC6 H4, base, 1-[2-[4-[2-(4-fluorophenyl)-2-oxoethyl]-1-piperidinyl]ethyl]-1,3-dihydro-2H-benzimidazol-2-one]", "values": [
      {"measurement": "ED50", "setting": "[4]", "result": 0.31, "unit": "mg/kg"},
      {"measurement": "ED50", "setting": "[3]", "result": 0.31, "unit": "mg/kg"},
      {"measurement": "ED50", "setting": "[1]", "result": 0.03, "unit": "mg/kg"},
      {"measurement": "ED50", "setting": "[2]", "result": 0.01, "unit": "mg/kg"}
    ]},
    {"smiles": "O=C(CC1CCN(CCn2c(=O)[nH]c3ccccc32)CC1)c1ccccc1", "note": "[H, H, H, (CH2)2, CO, C6 H5, base]", "values": [
      {"measurement": "ED50", "setting": "[4]", "result": 0.63, "unit": "mg/kg"},
      {"measurement": "ED50", "setting": "[3]", "result": 2.5, "unit": "mg/kg"},
      {"measurement": "ED50", "setting": "[1]", "result": 0.25, "unit": "mg/kg"},
      {"measurement": "ED50", "setting": "[2]", "result": 0.31, "unit": "mg/kg"}
    ]},
    {"smiles": "O=C(CC1CCN(CCCn2c(=O)[nH]c3ccccc32)CC1)c1ccc(F)cc1", "note": "[H, H, H, (CH2)3, CO, 4-FC6 H4, base, 1-[3-[4-[2-(4-fluorophenyl)-2-oxoethyl]-1-piperidinyl]propyl]-1,3-dihydro-2H-benzimidazol-2-one]", "values": [
      {"measurement": "ED50", "setting": "[3]", "result": 1.25, "unit": "mg/kg"},
      {"measurement": "ED50", "setting": "[2]", "result": 0.08, "unit": "mg/kg"}
    ]},
    {"smiles": "CC(CCn1c(=O)[nH]c2ccccc21)N1CCC(CC(=O)c2ccc(F)cc2)CC1", "note": "(stereo not shown) [H, H, H, [drawing 21], CO, 4-FC6 H4, base, 1-[3-[4-[2-(4-fluorophenyl)-2-oxoethyl]-1-piperidinyl]butyl]-1,3-dihydro-2H-benzimidazol-2-one]", "values": [
      {"measurement": "ED50", "setting": "[3]", "result": 5, "unit": "mg/kg"},
      {"measurement": "ED50", "setting": "[2]", "result": 1.25, "unit": "mg/kg"}
    ]},
    {"smiles": "CN(C)CCCSc1ccccc1NC(=O)/C=C/c1ccccc1", "note": "[cinanserin]", "values": [
      {"measurement": "prevention of cyanosis of ears and extremities", "setting": "[5]", "result": "prevent completely"},
      {"measurement": "prevention of lesions in the glandular area of the stomach and abnormal gastric distension", "setting": "[5]", "result": "prevent completely"}
    ]},
    {"smiles": "CN1CCC(=C2c3ccccc3C=Cc3ccccc32)CC1", "note": "[cyproheptadine]", "values": [
      {"measurement": "prevention of cyanosis of ears and extremities", "setting": "[5]", "result": "prevent completely"},
      {"measurement": "prevention of lesions in the glandular area of the stomach and abnormal gastric distension", "setting": "[5]", "result": "prevent completely"}
    ]},
    {"smiles": "CN1C[C@H](CNC(=O)OCc2ccccc2)C[C@@H]2c3cccc4c3c(cn4C)C[C@H]21", "note": "[metergoline]", "values": [
      {"measurement": "prevention of cyanosis of ears and extremities", "setting": "[5]", "result": "prevent completely"},
      {"measurement": "prevention of lesions in the glandular area of the stomach and abnormal gastric distension", "setting": "[5]", "result": "prevent completely"}
    ]},
    {"smiles": "CC[C@@H](CO)NC(=O)[C@@H]1C=C2c3cccc4c3c(cn4C)C[C@H]2N(C)C1", "note": "[methysergide]", "values": [
      {"measurement": "prevention of cyanosis of ears and extremities", "setting": "[5]", "result": "prevent completely"},
      {"measurement": "prevention of lesions in the glandular area of the stomach and abnormal gastric distension", "setting": "[5]", "result": "prevent completely"}
    ]},
    {"smiles": "CN1CCN2c3ccccc3Cc3ccccc3C2C1", "note": "(stereo not shown) [mianserin]", "values": [
      {"measurement": "prevention of cyanosis of ears and extremities", "setting": "[5]", "result": "prevent completely"},
      {"measurement": "prevention of lesions in the glandular area of the stomach and abnormal gastric distension", "setting": "[5]", "result": "prevent completely"}
    ]},
    {"smiles": "NC(=O)C1(N2CCCCC2)CCN(CCCC(=O)c2ccc(F)cc2)CC1", "note": "[pipamperone]", "values": [
      {"measurement": "prevention of cyanosis of ears and extremities", "setting": "[5]", "result": "prevent completely"},
      {"measurement": "prevention of lesions in the glandular area of the stomach and abnormal gastric distension", "setting": "[5]", "result": "prevent completely"}
    ]},
    {"smiles": "CN1CCC(=C2c3ccccc3CCc3sccc32)CC1", "note": "[pizotifen]", "values": [
      {"measurement": "prevention of cyanosis of ears and extremities", "setting": "[5]", "result": "prevent completely"},
      {"measurement": "prevention of lesions in the glandular area of the stomach and abnormal gastric distension", "setting": "[5]", "result": "prevent completely"}
    ]},
    {"smiles": "O=C(CCCN1CCC2(CC1)C(=O)NCN2c1ccccc1)c1ccc(F)cc1", "note": "[spiperone]", "values": [
      {"measurement": "prevention of cyanosis of ears and extremities", "setting": "[5]", "result": "prevent completely"},
      {"measurement": "prevention of lesions in the glandular area of the stomach and abnormal gastric distension", "setting": "[5]", "result": "prevent completely"}
    ]}
  ]
}
